The text below walks through data of patent US4593019A, “N^6 -tricyclic adenosines” (Warner-Lambert Company, priority 1984, dated 1986).

For one data set, the system named is mice. The data set is described as follows: Mouse Activity and Screen Test Procedure (MAST): screen test failure. The format is in vivo, mouse (male Swiss-Webster). Particulars: one hour postinjection. The text has this:
The compounds of the invention are new chemical substances which are useful as pharmaceutical agents for the treatment of psychoses. The antipsychotic activity of representative compounds of the invention was established by the Mouse Activity and Screen Test Procedure (MAST) described below.
(§1) Nine unfasted Swiss-Webster male mice weighing 20-30 g are equally divided into three groups for each drug dose to be tested. That is, data for each dose level was generated by three separate groups of three mice each.
(§2) A minimum of three dose levels (10, 30, and 100 mg/kg) are tested for each drug. Treatments are administered intraperitoneally one hour prior to testing. All dosages are calculated as parent compound and given in volumes of 10 ml/kg. Compounds are dissolved or suspended in 0.2% Methocel. Control animals are injected with Methocel.
A two part testing procedure is started one hour postinjection. First, the screen test (ST) is performed (see Pharmac. Biochem. Behav. 6, 351-353, 1977). Briefly this test consists of placing mice on individual wire screens which are then rotated 180 degrees at the start of a 60 second observation period. The number of mice falling off the inverted screen is recorded.
The data obtained from the screen test are expressed as percent of mice falling off the screen. Data derived from locomotor activity of drug treated mice are compared to the activity of vehicle treated animals and are expressed as percent inhibition of spontaneous locomotion. All percentages reported for inhibition of locomotion (LI) are based upon data accumulated for one hour. Both phases of testing are graded: A=60-100%; C=31-59%; and N=0-30%. An overall dose rating is obtained by the following criteria: […]

In the next data set the target is T1, A1 receptor (Rattus norvegicus, UniProt P25099).
T1 construct: Whole brain minus cerebellum and brainstem from male Long Evans rats; from tissue; host or cells: rat whole brain minus cerebellum and brainstem (membranes)
T1 sequence (P25099 1-326): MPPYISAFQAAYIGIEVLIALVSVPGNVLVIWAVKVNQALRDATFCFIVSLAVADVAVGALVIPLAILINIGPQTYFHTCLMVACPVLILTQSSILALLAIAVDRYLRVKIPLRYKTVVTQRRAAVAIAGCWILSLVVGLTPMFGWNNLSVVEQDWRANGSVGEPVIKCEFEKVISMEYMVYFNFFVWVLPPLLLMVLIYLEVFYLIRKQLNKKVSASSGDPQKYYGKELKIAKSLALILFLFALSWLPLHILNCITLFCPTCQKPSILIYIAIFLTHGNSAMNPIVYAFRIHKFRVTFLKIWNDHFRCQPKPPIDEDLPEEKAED
The data set is described as follows: Adenosine Receptor Binding - A1 Receptor Affinity (RBA1), [3H]-CHA displacement. Particulars: 1.0 nM [3H]-CHA, rat brain membranes, pH 7.7, 25° C., 1 h; read-out: RBA-1 IC50 (adenosine A1 receptor affinity). The method, then: The supernatant was discarded, and the pellet was resuspended and centrifuged as before. […] Incubation volume was 2 ml. […] The radio-labeled ligand retained on the filter was measured by liquid scintillation spectrophotometry after shaking the filters for one hour or longer on a mechanical shaker in 10 ml of Beckman Ready-Solv HP scintillation cocktail. […] The maximal number of binding sites (Bmax) was calculated from the Scatchard plot.

A further data set deals with T2, A2 receptor (Rattus norvegicus, UniProt P30543).
T2 construct: 5 mg original tissue weight of rat weight of rat striatal membranes; tissue Pel-Freez (Rogers, Ark.); host or cells: rat striatum (membranes)
T2 sequence (P30543 whole entry): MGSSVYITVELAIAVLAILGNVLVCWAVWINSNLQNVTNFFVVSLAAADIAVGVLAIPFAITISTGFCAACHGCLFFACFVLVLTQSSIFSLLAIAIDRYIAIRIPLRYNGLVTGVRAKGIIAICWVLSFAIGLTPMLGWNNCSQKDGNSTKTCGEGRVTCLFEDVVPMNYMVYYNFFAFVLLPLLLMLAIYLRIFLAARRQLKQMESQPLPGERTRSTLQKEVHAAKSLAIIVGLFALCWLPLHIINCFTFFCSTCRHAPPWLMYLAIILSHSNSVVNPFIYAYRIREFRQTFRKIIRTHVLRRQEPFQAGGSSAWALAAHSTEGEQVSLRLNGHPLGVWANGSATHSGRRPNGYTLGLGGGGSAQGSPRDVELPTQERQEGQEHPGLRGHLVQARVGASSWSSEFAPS
The data set is described as follows: Adenosine Receptor Binding - A2 Receptor Affinity (RBA2), [3H]NECA displacement. The following applies: 4 nM [3H]NECA, 50 nM N6-cyclopentyladenosine, rat striatal membranes, 25° C., 60 min; read-out: RBA-2 IC50 (adenosine A2 receptor affinity). The method, then:
Adenosine Receptor Binding--A2 Receptor Affinity (RBA2)
Brains from 200-500 g mixed sex Sprague-Dawley rats were purchased from Pel-Freez (Rogers, Ark.). […] Brains were thawed and then kept on ice while the striata were dissected out. […] The suspension was centrifuged at 50,000 xg for ten minutes, the supernatant discarded, the pellet resuspended in 10 vol ice-cold Tris as above, recentrifuged, resuspended at 1 g/5 ml, and stored in plastic vials at -70° C. […] When needed, tissue was thawed at room temperature, disrupted in a Polytron, and kept on ice until used. […]
Nonspecific binding was defined as binding in the presence of 100 μM N^6 -cyclopentyladenosine, and specific binding was defined as total binding minus nonspecific binding. The IC50 was calculated by weighted nonlinear least squares curve-fitting to the mass-action equation. […]
Weighting factors were calculated under the assumption that the standard deviation was proportional to the predicted value of Y. Nonspecific binding was treated as a very large (infinite) concentration of drug in the computer analysis.

A short description of data set [1]: Mouse Activity and Screen Test Procedure (MAST): inhibition of spontaneous locomotion. The format is in vivo, mouse (male Swiss-Webster). The following applies: one hour prior to testing, accumulated over one hour. The procedure:
as §1, §2
A two part testing procedure is started one hour postinjection. […] Briefly this test consists of placing mice on individual wire screens which are then rotated 180 degrees at the start of a 60 second observation period. The number of mice falling off the inverted screen is recorded.
The actophotometer consists of a cylindrical chamber whose center is occupied by another cylinder which contains the illumination for six photocells located on the perimeter of the chamber. Six light-beam interruptions equal one count. Locomotor activity is recorded by computer at ten minute intervals for 60 minutes.
The data obtained from the screen test are expressed as percent of mice falling off the screen. Data derived from locomotor activity of drug treated mice are compared to the activity of vehicle treated animals and are expressed as percent inhibition of spontaneous locomotion. All percentages reported for inhibition of locomotion (LI) are based upon data accumulated for one hour. […] An overall dose rating is obtained by the following criteria:
LAD refers to the lowest dose at which an A rating is achieved. […] The compounds are identified in the examples.

Usually IC50 stands for the midpoint of a concentration-inhibition curve. As to `OC[C@H]1O[C@@H](n2cnc3c(NCC4c5ccccc5Oc5ccccc54)ncnc32)[C@H](O)[C@@H]1O` [Example 4, N^6-[Xanthene-9-methylamino]adenosine], the “Screen Test Failure (percent of mice falling off the screen)” value is 0% with mice (1 mg/kg i.p.); 0% in the data set on mice (3 mg/kg i.p.); 0% in the data set with mice (10 mg/kg i.p.); 11% in the data set with mice (30 mg/kg i.p.); 44% in the data set with mice (100 mg/kg i.p.). In addition, the IC50 is 85 nM on A1 receptor and 65 nM at A2 receptor. In addition, the “Inhibition of Mouse Locomotion Activity” value in data set [1] (1 mg/kg i.p.) is recorded as -5%; in data set [1] (3 mg/kg i.p.) it was 17%; in data set [1] (10 mg/kg i.p.), 72%; in data set [1] (30 mg/kg i.p.), 91%; in data set [1] (100 mg/kg i.p.), 91%.
